Data set [1] concerns HBV. Kind of data set: In vitro anti-HBV activity in HepG2.2.15 cell line (intracellular HBV DNA by qPCR at 1 μM). The class given is cell-based. To be noted: Hepatitis B virus, 144 h; HepG2.2.15 cells, 1 μM compound, 6 days, intracellular HBV DNA as percentage compared to vehicle control (0.5% DMSO). The essentials:
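HepG2.2.15 cells given compound at 1 μM (0.5% DMSO final) for 3 days, then fresh compound-containing medium for 3 more days. After 6 days intracellular HBV DNA measured by qPCR. Expressed as % of 0.5% DMSO vehicle control and binned into letter ranges.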
(Real-time PCR tracks product formation cycle by cycle.)

Data set [2] has as its system HBV. Kind of data set: Effect on intrahepatic HBV DNA levels in HepG2.2.15 cells (EC50). The class given is cell-based. Particulars: Hepatitis B virus, 144 h, 6 days, intrahepatic HBV DNA by qPCR, read-out: Anti-HBV DNA (EC50). In short, it runs like this:
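Over 6 days at 37° C., HepG2.2.15 cells were treated with compound in 10% FCS medium, refreshed with compound after day 3. Intracellular HBV DNA was quantified by qPCR from cell lysates, and EC50 fitted by nonlinear regression relative to no-drug controls.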

Data set [3] can be described thus: Cytotoxicity (MTT) in HepG2.2.15 cells. The class given is cell-based. Particulars: human, 6 days treatment, read-out: HepG2.1.15 cytotoxicity (CC50). The essentials: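 Adhered HepG2.2.15 cells were exposed to compounds for 6 days, then given […] MTT in serum-free medium for 2 h. Formazan dissolved in DMSO was read at 570 nm. CC50 (50% cell death) came from four-parameter fitting of viability versus concentration.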

The target of data set [4] is T1, HBV core protein (Cp149) (Hepatitis B virus genotype D subtype ayw, UniProt P03146).
T1 construct: HBV core C-terminally truncated protein (HBV Cp149); made in house
Description: HBV capsid assembly by size exclusion chromatography (SEC). The class given is biochemical. Particulars: 50 μM compound, 15 μM Cp149, 16 hours at 21° C. Background: In gel filtration, larger molecules generally elute earlier.

Data set [5] concerns the target T1, HBV core protein (Cp149). Description: HBV capsid assembly by electron microscopy (EM). Type of data set: biochemical. To be noted: 50 μM compound, 15 μM Cp149, negative stain.
Data set [6] deals with T2, HBV capsid (Hepatitis B virus genotype D subtype ayw, UniProt P03146).
T2 construct: expressed in transfected cells; host or cells: HepG2.2.15
Kind of data set: Mechanistic study in stably HBV expressed HepG2.2.15 cells (capsid, encapsidated DNA/RNA, core protein blots). Type of data set: cell-based. Particulars: HepG2.2.15, 6 days; for HBV capsid (formation of DNA- and RNA-devoid capsid): various concentrations; for Intracellular HBV core protein level: western blot. The procedure: The stably HBV expressed HepG2.2.15 cells were treated with test compounds, at various concentrations in culture medium, at 37° C. for three days. After that the medium was removed and fresh medium containing the compound was added to the cells for another 3 days. After 6 days of treatment, cellular lysates from the treated cells were assessed by non-denatured agarose gel electrophoresis. HBV capsid was detected by western blot with monoclonal anti-HBV core. Encapsidated HBV DNA and RNA were detected by southern blot and northern blot. Intracellular HBV core protein was assessed by western Blot with a monoclonal mouse anti-HBV core. β-actin protein assessed by western blot was used as an internal control.
For orientation: A western blot detects proteins with antibodies after separation by electrophoresis.

In data set [7] the test system is HBV genotype D. Kind of data set: HBV-infected primary human hepatocytes (PHH). Type of data set: cell-based, Hepatitis B virus. Particulars: for HBeAg in PHH / HBsAg in PHH: treatment scheme 1; for HBV DNA in PHH: treatment scheme 1 (compound added simultaneously with infection media, 6 days); for cccDNA establishment in PHH: treatment scheme 1, southern blot. The procedure:
Primary human hepatocytes (PHH) were infected with HBV genotype D produced from HepG2.2.15 cell line on day 1 after plating. Subsequently, the PHH were treated with various concentrations of compounds into 2 different treatment schemes. For treatment scheme 1, the compounds were added into PHH simultaneously with infection media, and incubated for additional 6 days. For treatment scheme 2, the compounds were added into PHH at day 3 after infection, and further incubated for 6 days. After treatment, the cell culture supernatants were collected for the determinations of HBV DNA by qPCR, pgRNA by RT-PCR, HBsAg and HBeAg by ELISA, and cell viability by CCK-8. The cells were harvested for detection of intracellular cccDNA by southern blot.

Data set [8] deals with HBV genotypes A to D. Type of data set: cell-based. Particulars: transfected HepG2 cells.
Data set [9] deals with T3, HBV construct U95551 (wild-type) (Hepatitis B virus genotype D subtype ayw, UniProt P03146).
T3 construct: expressed in transfected cells; host or cells: HepG2
Type of data set: cell-based. To be noted: relative to the wild type construct.

Data set [10] has as its target HBV core protein variant F23Y (Hepatitis B virus genotype D subtype ayw, UniProt P03146, F23Y). Description: Anti-HBV activity in core protein variants: F23Y. The class given is cell-based. Particulars: relative to the wild type construct.
In data set [11] the target is HBV core protein variant D29G (Hepatitis B virus genotype D subtype ayw, UniProt P03146, D29G). Description: Anti-HBV activity in core protein variants: D29G. The class given is cell-based. To be noted: relative to the wild type construct.
The target of data set [12] is HBV core protein variant T33N (Hepatitis B virus genotype D subtype ayw, UniProt P03146, T33N). Description: Anti-HBV activity in core protein variants: T33N. Type of data set: cell-based. To be noted: relative to the wild type construct.
Data set [13] has as its target HBV core protein variant I105T (Hepatitis B virus genotype D subtype ayw, UniProt P03146, I105T). Description: Anti-HBV activity in core protein variants: I105T. The class given is cell-based. To be noted: relative to the wild type construct.
Data set [14] concerns the target HBV core protein variant T109I (Hepatitis B virus genotype D subtype ayw, UniProt P03146, T109I). Description: Anti-HBV activity in core protein variants: T109I. Type of data set: cell-based. To be noted: relative to the wild type construct.
The target of data set [15] is HBV core protein variant T109M (Hepatitis B virus genotype D subtype ayw, UniProt P03146, T109M). Description: Anti-HBV activity in core protein variants: T109M. The class given is cell-based. Particulars: relative to the wild type construct.
The target of data set [16] is HBV core protein variant Y118F (Hepatitis B virus genotype D subtype ayw, UniProt P03146, Y118F). Kind of data set: Anti-HBV activity in core protein variants: Y118F. To be noted: relative to the wild type construct. The class given is cell-based.
Data set [17] can be described thus: Pharmacokinetic study in rats. Type of data set: in vivo, male Sprague-Dawley rats. The procedure:
(§1) Test compounds were administered to male Sprague-Dawley rats and male Beagle dogs by oral (PO) and intravenous (TV) administration. For TV dosing, test compounds were dosed at 0.2 to 0.5 mg/kg using a formulation of 10% dimethyl sulfoxide in 20% hydroxypropyl beta-cyclodextrin solution via IV bolus. For PO dosing, test compounds were dosed at 0.3 to 2.0 mg/kg using a formulation of 40% polyethylene glycol 400 in water via oral gavage. Blood samples were collected at pre-dose and various time points up to 24 hours post-dose, and centrifuged to obtain plasma samples. The plasma concentrations of test compounds were quantified by LC-MS/MS methods. The relevant pharmacokinetic parameters (Table D) were calculated via non-compartmental analysis using WinNonlin (Phoenix™, version 8.3).

Data set [18] in a line: Pharmacokinetic study in dogs. Type of data set: in vivo, male Beagle dogs. The procedure: as §1

These results are taken from patent publication US20230391752A1, “PYRROLIDINE-3-CARBOXAMIDE DERIVATIVES AND RELATED USES” (Chulalongkorn University, priority 2020, published 2023).

pEC50: −log10 of the molar value.

A word on the pEC50: it is the EC50 on a negative log10 scale, so that one unit is a factor of ten. In general, CC50 refers to the concentration at which the toxic effect on the cells reaches its halfway point.

In turn, `C[C@H]1[C@@H](C(=O)Nc2cc(F)c(F)c(F)c2)CCN1C(=O)c1[nH]c2ccccc2c1Cl` [Example 42, (2S,3S)-1-(3-chloro-1H-indole-2-carbonyl)-2-methyl-N-(3,4,5-trifluorophenyl)pyrrolidine-3-carboxamide] yielded an activity at 1 µM in data set [1] below 45%. Also, the pEC50 in [2] was 6.52 to 7.30. The CC50 at 6 days in data set [3] was above 25 µM. Further, the “Size of induced capsids based on SEC retention times” value in data set [4] was “capsid retention times between BAY 41-4109 and NVR 3-778”. In addition, the “Capsid morphology by EM” value in data set [5] is recorded as “resulted in larger but normal shape spheres”. Further, in [6], the “HBV capsid (formation of DNA- and RNA-devoid capsid)” value was “dose-dependently accelerated formation of DNA- and RNA-devoid capsid”; the “Intracellular HBV core protein level” value is “had no effect on intracellular HBV core protein level”. In addition, in data set [7], the “HBeAg in PHH” value is given as “inhibited”, the “HBsAg in PHH” value is “inhibited”, the “HBV DNA in PHH” value is “inhibited” and the “cccDNA establishment in PHH” value is “inhibited”.

In the case of `Cc1cc(NC(=O)[C@H]2CCN(C(=O)c3ccc(-c4c(C)ncnc4C)[nH]3)[C@H]2C)ccc1F` [Example 149, (2S,3S)-1-(5-(4,6-dimethylpyrimidin-5-yl)-1H-pyrrole-2-carbonyl)-N-(4-fluoro-3-methylphenyl)-2-methylpyrrolidine-3-carboxamide], in [1], the activity at 1 µM is below 45%. Further, the pEC50 in data set [2] was above 7.30. Further, in [3], the cytotoxic concentration (CC50) at 6 days lay within 10 to 25 µM. For the same molecule, in data set [4], the “Size of induced capsids based on SEC retention times” value is given as “induced capsids similar in size to NVR 3-778”. In data set [7], the “HBeAg in PHH” value is “inhibited”, the “HBsAg in PHH” value is on record as “inhibited”, the “HBV DNA in PHH” value is “inhibited” and the “cccDNA establishment in PHH” value is given as “inhibited”. The “Anti-HBV activity across HBV genotypes” value in data set [8] is “effective across all HBV genotypes tested (A to D)”. In data set [9], the “Fold change in EC50, U95551 (wild-type)” value was “B (B=1-5)”. Moreover, the “Fold change in EC50, F23Y” value in data set [10] is “C (C=5-15)”. In addition, in data set [11], the “Fold change in EC50, D29G” value is “B (B=1-5)”. Further, in [12], the “Fold change in EC50, T33N” value was “D (D>15)”. Moreover, in data set [13], the “Fold change in EC50, I105T” value is reported as “B (B=1-5)”. Moreover, the “Fold change in EC50, T109I” value in data set [14] is reported as “A (A<1)”. In addition, the “Fold change in EC50, T109M” value in [15] is given as “A (A<1)”. For the same molecule, the “Fold change in EC50, Y118F” value in data set [16] was “A (A<1)”. Also, the “CL (mL/min/kg) Rat” value in data set [17] (IV 0.2 to 0.5 mg/kg) stood at 20.0 mL/min/kg. For the same molecule, the “F (%) Rat” value in [17] (PO 0.3 to 2.0 mg/kg) was 44%. In data set [17] (male, Sprague-Dawley, plasma, rat, IV 0.2 to 0.5 mg/kg, read-out: Vd,ss (L/kg) Rat), the Vd stood at 2.92 L/kg. Further, in data set [17] (male, Sprague-Dawley, rat, plasma, read-out: t1/2 (h) Rat (converted)), the half-life is 6.5 h. Also, the “F (%) Dog” value in data set [18] (PO 0.3 to 2.0 mg/kg) is listed as 63%. For the same molecule, the half-life in data set [18] (male, Beagle, dog, plasma, read-out: t1/2 (h) Dog (converted)) was 4.5 h. Moreover, in data set [18] (male, Beagle, plasma, dog, IV 0.2 to 0.5 mg/kg, read-out: CL (mL/min/kg) Dog), the clearance is 5.1 mL/min/kg. The Vd in data set [18] (male, Beagle, plasma, dog, IV 0.2 to 0.5 mg/kg, read-out: Vd,ss (L/kg) Dog) was determined as 1.3 L/kg.

Regarding `CCOC(=O)C1=C(CN2CCOCC2)NC(c2nccs2)=NC1c1ccc(F)cc1Br` (stereo not shown) [GLS4, reference compound], in data set [6], the “HBV capsid (formation of DNA- and RNA-devoid capsid)” value is “induced formation of DNA- and RNA-devoid capsid”; the “Intracellular HBV core protein level” value is reported as “reduced intracellular HBV core protein level in the concentration-dependent manner”. The “Fold change in EC50, U95551 (wild-type)” value in data set [9] is listed as “B (B=1-5)”. Besides, in [10], the “Fold change in EC50, F23Y” value is given as “C (C=5-15)”. For the same molecule, in [11], the “Fold change in EC50, D29G” value is “B (B=1-5)”. Further, in data set [12], the “Fold change in EC50, T33N” value is “D (D>15)”. In addition, the “Fold change in EC50, I105T” value in data set [13] is reported as “B (B=1-5)”. Besides, the “Fold change in EC50, T109I” value in [14] was “C (C=5-15)”. Further, the “Fold change in EC50, T109M” value in data set [15] is recorded as “B (B=1-5)”. Moreover, in data set [16], the “Fold change in EC50, Y118F” value was “B (B=1-5)”.
